Assay results published in US11905286B2, “Diazabicyclooctanones as inhibitors of serine beta-lactamases” (priority 2018, dated 2024).
In brackets after ≈: the same amount, converted by molar mass. Counter-ions that a name gives are not always drawn. Like-named read-outs stand apart in the source and are kept apart here.

Key:
[1] = molecular target: CTX-M15 (Escherichia coli, UniProt Q9EXV5); assay: In vitro enzyme inhibition assay (nitrocefin hydrolysis), CTX-M15; assay type: biochemical
Protocol: (§1) Compound dilution was performed in DMSO.

[2] = test system: NTBC091.1 (E. coli strain expressing KPC-2, TEM-1); assay: Meropenem potentiation, broth micro-dilution MIC, strain NTBC091.1; assay type: cell-based; conditions: for MIC mero + 4 μg/mL inhibitor (banded): NTBC091.1, MIC of meropenem with 4 μg/mL of the labelled inhibitor, band; for MIC of meropenem + compound compared with meropenem + avibactam: NTBC091.1
Protocol: (§4) The experiments were carried out using the ‘broth micro-dilution method’ according to the protocols M07-A8 established by the Clinical Laboratory Standards Institute (CLSI). […] After incubation for 18-20 hours in a heating chamber at 37° C., the growth inhibition was evaluated by the absence of any bacterial development.
(§5) Compounds of the invention were tested at concentrations of 4 μg/mL.

[3] = test system: NTBC096.1 (K. pneumoniae strain expressing OXA-181 and SHV-11); assay: Meropenem potentiation, broth micro-dilution MIC, strain NTBC096.1; assay type: cell-based; conditions: for MIC: Klebsiella pneumoniae, read-out: MIC mero + 4 μg/mL inhibitor
Protocol: as §4, §5

[4] = molecular target: T1, AmpC (Enterobacter cloacae, UniProt P05364); conditions: read-out: Amp-C mean IC50 (banded); nitrocefin 100 μM, band
T1 sequence (P05364 21-381): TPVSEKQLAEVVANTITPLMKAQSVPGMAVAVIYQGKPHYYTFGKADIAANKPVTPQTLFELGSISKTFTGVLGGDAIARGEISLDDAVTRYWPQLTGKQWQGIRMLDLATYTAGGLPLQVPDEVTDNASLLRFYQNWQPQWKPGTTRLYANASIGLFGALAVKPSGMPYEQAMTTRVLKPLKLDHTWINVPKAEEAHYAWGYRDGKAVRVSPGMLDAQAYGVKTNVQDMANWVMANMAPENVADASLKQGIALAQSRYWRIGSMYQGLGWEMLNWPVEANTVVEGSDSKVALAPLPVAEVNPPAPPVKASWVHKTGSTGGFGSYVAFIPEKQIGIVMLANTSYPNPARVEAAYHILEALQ

[5] = test system: NTBC093 (E. cloacae strain expressing KPC-2, TEM-1); assay: Meropenem potentiation, broth micro-dilution MIC, strain NTBC093; conditions: for MIC: Enterobacter cloacae, read-out: MIC mero + 4 μg/mL inhibitor
Protocol: as §4, §5

[6] = test system: NTBC189 (K. pneumoniae strain expressing TEM-OSBL(b), CTX-M-14, OXA-48(c)); assay: Meropenem potentiation, broth micro-dilution MIC, strain NTBC189; conditions: for MIC: Klebsiella pneumoniae, read-out: MIC mero + 4 μg/mL inhibitor
Protocol: as §4, §5

[7] = molecular target: KPC-2 (Klebsiella pneumoniae, UniProt Q9F663); assay: In vitro enzyme inhibition assay (nitrocefin hydrolysis), KPC-2; assay type: biochemical
Sequence of KPC-2 (Q9F663 25-293 limits assumed): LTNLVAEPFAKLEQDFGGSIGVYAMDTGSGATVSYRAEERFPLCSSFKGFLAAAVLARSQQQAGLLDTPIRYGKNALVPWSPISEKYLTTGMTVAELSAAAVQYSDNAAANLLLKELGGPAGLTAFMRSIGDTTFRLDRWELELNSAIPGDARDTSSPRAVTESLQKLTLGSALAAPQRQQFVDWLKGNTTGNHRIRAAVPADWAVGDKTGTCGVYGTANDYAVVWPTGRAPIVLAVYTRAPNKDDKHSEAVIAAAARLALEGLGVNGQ
Protocol: as §1

[8] = molecular target: OXA-48 (Klebsiella pneumoniae, UniProt Q6XEC0); assay: In vitro enzyme inhibition assay (nitrocefin hydrolysis), OXA-48; assay type: biochemical
Sequence of OXA-48 (Q6XEC0 23-265 limits assumed): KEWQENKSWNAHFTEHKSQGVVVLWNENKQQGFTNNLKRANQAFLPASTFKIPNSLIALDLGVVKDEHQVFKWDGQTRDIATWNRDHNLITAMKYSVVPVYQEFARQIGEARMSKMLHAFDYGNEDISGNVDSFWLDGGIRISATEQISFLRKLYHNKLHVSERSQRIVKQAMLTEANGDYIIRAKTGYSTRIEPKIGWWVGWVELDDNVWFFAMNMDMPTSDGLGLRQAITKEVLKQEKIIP
Protocol: as §1

[9] = test system: NTBC099 (K. pneumoniae strain expressing KPC-3, SHV-11 and TEM-1); assay: Meropenem potentiation, broth micro-dilution MIC, strain NTBC099; conditions: Klebsiella pneumoniae, read-out: MIC mero + 4 μg/mL inhibitor
Protocol: as §4, §5

[10] = molecular target: T1, AmpC; assay: biochemical
[11] = molecular target: TEM-1 (Escherichia coli, UniProt P62593); assay: In vitro enzyme inhibition assay (nitrocefin hydrolysis), TEM-1; assay type: biochemical; conditions: nitrocefin 100 μM, band; read-out: TEM-1 mean IC50 (banded)
Sequence of TEM-1 (P62593 24-286 limits assumed): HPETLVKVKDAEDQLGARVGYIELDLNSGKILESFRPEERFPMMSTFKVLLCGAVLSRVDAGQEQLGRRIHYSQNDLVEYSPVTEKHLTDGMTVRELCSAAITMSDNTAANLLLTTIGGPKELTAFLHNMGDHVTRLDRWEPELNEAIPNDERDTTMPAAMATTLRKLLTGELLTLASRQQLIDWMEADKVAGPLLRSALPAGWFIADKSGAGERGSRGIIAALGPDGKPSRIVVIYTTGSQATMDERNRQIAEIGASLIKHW
Protocol: as §1

[12] = test system: KPC-expressing clinical strain of Klebsiella pneumoniae (NR-48977); assay: MIC against strain used in thigh model, NR-48977; assay type: cell-based
Source text: (§2) Compounds of the invention were further examined in animal efficacy models.

[13] = test system: OXA-expressing clinical strain of Klebsiella pneumoniae (AC00783); assay: MIC against strain used in thigh model, AC00783; assay type: cell-based
Source text: as §2

[14] = test system: OXA-expressing clinical strain of Acinetobacter baumannii (AC00445); assay: MIC against strain used in thigh model, AC00445; assay type: cell-based
Source text: as §2

[15] = test system: KPC-expressing clinical strain of Klebsiella pneumoniae (NR-48977); assay: Mouse thigh infection efficacy model, NR-48977; assay type: in vivo; conditions: mice, IV at 1, 3, 5 and 7 hours post infection with constant dose of meropenem, 9 hours post infection
Protocol: as §2
(§3) Vehicle, meropenem alone or meropenem and a compound of the invention (Example 10) were administered by IV at 1, 3, 5 and 7 hours post infection. 9 hours post infection animals were sacrificed and the number of colony forming units (CFUs) was measured in order to quantify bacterial burden (colony forming units per gram thigh tissue, CFU/g).

[16] = test system: OXA-expressing clinical strain of Klebsiella pneumoniae (AC00783); assay: Mouse thigh infection efficacy model, AC00783; assay type: in vivo; conditions: mice, IV at 1, 3, 5 and 7 hours post infection with constant dose of meropenem, 9 hours post infection
Protocol: as §2, §3

[17] = test system: OXA-expressing clinical strain of Acinetobacter baumannii (AC00445); assay: Mouse thigh infection efficacy model, AC00445; assay type: in vivo; conditions: mice, IV at 1, 3, 5 and 7 hours post infection with constant dose of meropenem, 9 hours post infection
Protocol: as §2, §3

[18] = test system: panel of 48 A. baumannii strains (OXA positive clinical isolates); assay: Cumulative MIC, panel of 48 A. baumannii strains (FIG. 3)
[19] = test system: clinical strains of KPC positive enterobacteriaceae; conditions: FIG. 2, meropenem + 4 μg/mL inhibitor
[20] = test system: larger panel of clinical strains of OXA positive enterobacteriaceae; assay: Cumulative MIC, larger panel of clinical strains of OXA positive enterobacteriaceae (FIG. 1B); conditions: meropenem + 4 μg/mL inhibitor
[21] = test system: clinical strains of OXA positive enterobacteriaceae; assay: Cumulative MIC, panel of clinical strains of OXA positive enterobacteriaceae (FIG. 1A); conditions: antibiotic alone or clinical combination

Sequence of CTX-M15 (Q9EXV5 entry or part of it): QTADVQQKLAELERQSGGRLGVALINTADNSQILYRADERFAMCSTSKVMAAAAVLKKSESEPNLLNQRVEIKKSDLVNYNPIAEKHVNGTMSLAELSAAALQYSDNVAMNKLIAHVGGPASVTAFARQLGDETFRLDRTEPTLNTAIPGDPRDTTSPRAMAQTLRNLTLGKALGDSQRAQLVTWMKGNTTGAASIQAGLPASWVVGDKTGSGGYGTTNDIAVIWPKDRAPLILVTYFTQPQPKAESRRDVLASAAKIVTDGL

SMILES	MIC mero + 4 μg/mL inhibitor (banded) [2]	IC50 [7]	IC50 [8]	IC50 [1]	IC50 [10]	further results
NC(=O)[C@@H]1CC[C@@H]2CN1C(=O)N2OS(=O)(=O)O [Avibactam, avibactam, reference compound]	A (1 μg/mL)					IC50 ([1]; nitrocefin 50 μM, band, read-out: CTX-M15 mean IC50 (banded)): < 5 nM; MIC mero + 4 μg/mL inhibitor (banded) ([3]; NTBC096.1, MIC of meropenem with 4 μg/mL of the labelled inhibitor, band): B (MIC=1 or 2 μg/mL); IC50 [4]: < 10 nM; MIC mero + 4 μg/mL inhibitor (banded) ([5]; NTBC093, MIC of meropenem with 4 μg/mL of the labelled inhibitor, band): A (1 μg/mL); MIC mero + 4 μg/mL inhibitor ([5]; NTBC093, MIC of meropenem with 4 μg/mL of the labelled inhibitor, value): 0.03 µg/mL; MIC mero + 4 μg/mL inhibitor (banded) ([6]; NTBC189, MIC of meropenem with 4 μg/mL of the labelled inhibitor, band): A (1 μg/mL)
O=C1N2C[C@@H](CC[C@H]2C(F)(F)F)N1OS(=O)(=O)O [Example 1, Sodium (2S, 5R)-7-oxo-2-(trifluoromethyl)-1,6-diazabicyclo[3.2.1]octan-6-yl sulfate]	(A) (1 μg/mL)	< 10 nM	< 20 nM	5 to 20 nM		MIC of meropenem + compound compared with meropenem + avibactam [2]: lower; MIC [3]: 4 µg/mL; MIC [5]: 0.06 µg/mL; MIC [6]: 2 µg/mL
O=C1N2C[C@@H](CC[C@H]2C(F)F)N1OS(=O)(=O)O [Example 2, Sodium (2S, 5R)-7-oxo-2-(difluoromethyl)-1,6-diazabicyclo[3.2.1]octan-6-yl sulfate]	(A) (1 μg/mL)	< 10 nM	20 to 100 nM	5 to 20 nM		MIC of meropenem + compound compared with meropenem + avibactam [2]: lower; MIC [3]: 4 µg/mL; MIC [5]: 0.06 µg/mL; MIC [9]: 1 µg/mL; MIC [6]: 2 µg/mL
O=C1N2C[C@@H](CC[C@H]2C(Cl)Cl)N1OS(=O)(=O)O [Example 3, Sodium (2S,5R)-2-(dichloromethyl)-7-oxo-1,6-diazabicyclo[3.2.1]octan-6-yl sulfate]	(A) (1 μg/mL)	< 10 nM	100 to 200 nM	20 to 100 nM	40 to 60 nM	
O=C1N2C[C@@H](CC[C@H]2CF)N1OS(=O)(=O)[O-].[Na+] [Example 4, Sodium (2S, 5R)-2-(fluoromethyl)-7-oxo-1,6-diazabicyclo[3.2.1]octan-6-yl sulphate]	(A) (1 μg/mL)	> 10 nM	200 to 300 nM	5 to 20 nM	< 10 nM	
CC(F)(F)[C@@H]1CC[C@@H]2CN1C(=O)N2OS(=O)(=O)[O-].[Na+] [Example 5, Sodium (2S, 5R)-2-(1,1-difluoroethyl)-7-oxo-1,6-diazabicyclo[3.2.1]octan-6-yl sulphate]	(A) (1 μg/mL)	> 10 nM	20 to 100 nM	5 to 20 nM	40 to 60 nM	
O=C1N2C[C@@H](CC[C@H]2CCl)N1OS(=O)(=O)[O-].[Na+] [Example 6, Sodium (2S, 5R)-2-(chloromethyl)-7-oxo-1,6-diazabicyclo[3.2.1]octan-6-yl sulphate]	(A) (1 μg/mL)	> 10 nM	200 to 300 nM		10 to 40 nM	
O=C1N2C[C@@H](CC[C@H]2SC(F)(F)F)N1OS(=O)(=O)[O-].[Na+] [Example 7, Sodium (2R, 5R)-7-oxo-2-[(trifluoromethyl)sulfanyl]-1,6-diazabicyclo[3.2.1]octan-6-yl sulphate]	(A) (1 μg/mL)	> 10 nM	200 to 300 nM		40 to 60 nM	
O=C1N2C[C@@H](CC[C@H]2COC(F)(F)F)N1OS(=O)(=O)[O-].[Na+] [Example 8, Sodium (2S, 5R)-7-oxo-2-[(trifluoromethoxy)methyl]-1,6-diazabicyclo[3.2.1]octan-6-yl sulphate]	(A) (1 μg/mL)	< 10 nM	200 to 300 nM	100 to 200 nM	40 to 60 nM	
O=C1N2C[C@@H](CC[C@H]2C(F)(F)c2nccs2)N1OS(=O)(=O)[O-].[Na+] [Example 9, Sodium (2S, 5R)-2-[difluoro(1,3-thiazol-2-yl)methyl]-7-oxo-1,6-diazabicyclo[3.2.1]octan-6-yl sulphate]	(A) (1 μg/mL)	< 10 nM	200 to 300 nM	20 to 100 nM	< 10 nM	
O=C1N2C[C@@H](CC[C@H]2F)N1OS(=O)(=O)[O-].[Na+] [Example 10, Sodium (2R,5R)-2-fluoro-7-oxo-1,6-diazabicyclo[3.2.1]octan-6-yl sulfate]	(A) (1 μg/mL)	> 10 nM	200 to 300 nM		10 to 40 nM	IC50 [11]: < 3 nM; MIC of meropenem + compound compared with meropenem + avibactam [2]: lower; MIC of meropenem + compound compared with meropenem + avibactam ([3]; NTBC096.1): lower; MIC (Meropenem + inhibitor at 4 μg/mL) ([12]; NR-48977): 1 µg/mL; MIC (Meropenem + inhibitor at 4 μg/mL) [13]: 0.25 µg/mL; MIC (Meropenem + inhibitor at 4 μg/mL) ([14]; AC00445): 4 µg/mL; bacterial burden (colony forming units per gram thigh tissue) [15]: dose response; bacterial burden (colony forming units per gram thigh tissue) [16]: dose response; bacterial burden (colony forming units per gram thigh tissue) [17]: dose response; % of the strains susceptible ([18]; FIG. 3, in the presence of 2 μg/mL of each inhibitor, inhibitor in combination with meropenem): around 50%; % of the strains susceptible ([18]; FIG. 3, in the presence of 16 μg/mL of each inhibitor, inhibitor in combination with meropenem): ~100%; MIC90 of meropenem with addition of 4 μg/mL of inhibitor ([18]; FIG. 3, meropenem + 4 μg/mL inhibitor): 8 µg/mL; MIC of meropenem + compound compared with meropenem + avibactam ([5]; NTBC093): similar; MIC of meropenem + compound compared with meropenem + avibactam ([6]; NTBC189): lower; MIC50 of meropenem with addition of 4 μg/mL of inhibitor [19]: 0.12 µg/mL; MIC50 of meropenem with addition of 4 μg/mL of inhibitor [20]: 0.12 µg/mL; MIC90 of meropenem with addition of 4 μg/mL of inhibitor [20]: 0.5 µg/mL
O=C1N2C[C@@H](CC[C@@H]2F)N1OS(=O)(=O)[O-].[Na+] [Example 11, Sodium (2S, 5R)-2-fluoro-7-oxo-1,6-diazabicyclo [3.2.1]octan-6-yl sulfate]	(A) (1 μg/mL)	> 10 nM	> 300 nM		> 60 nM	IC50 [11]: > 10 nM
O=C1N2C[C@@H](CC[C@H]2Cl)N1OS(=O)(=O)[O-].[Na+] [Example 12, Sodium (2R,5R)-2-chloro-7-oxo-1,6-diazabicyclo[3.2.1]octan-6-yl sulfate]	(A) (1 μg/mL)	> 10 nM	> 300 nM		< 10 nM	IC50 [11]: < 3 nM; MIC of meropenem + compound compared with meropenem + avibactam [2]: lower
C[C@@H](O)[C@H]1C(=O)N2C(C(=O)O)=C(S[C@@H]3CN[C@H](C(=O)N(C)C)C3)[C@H](C)[C@H]12 [meropenem, reference compound]						MIC ([12]; Klebsiella pneumoniae, read-out: MIC (meropenem alone)): 64 µg/mL (≈ 167 µM); MIC ([14]; Acinetobacter baumannii, read-out: MIC (meropenem alone)): 64 µg/mL (≈ 167 µM); % of the strains susceptible ([18]; FIG. 3, in the presence of 2 μg/mL of each inhibitor, antibiotic alone or clinical combination): 0%; fraction of strains susceptible at an MIC of 1 μg/mL [21]: 0%
